Test [1] relates to strain PS2306 (wild type ileS gene, plasmid pVDC433). Format: cell-based, E. coli. Conditions: 0.1 ml of 25 mM amino acid in central well, 37 degrees, 24 hours. The method, then: (§1) Strains PS2306 and PS2449 are tested for their sensitivity to artificial amino acids which present a steric resemblance to isoleucine. The cells are cultivated in MS mineral medium, succinate (0.2%), arabinose (0.2%) for 24 h at 37 degrees centigrade and diluted at 1/250in MS mineral medium. 0.5 ml of this cell suspension are spread on a Petri dish containing 25 ml of MS medium supplemented with succinate (0.2%) and arabinose (0.2%). A well is then prepared in the middle of the dish and filled with 0.1 ml of an amino acid solution: • 1) 25 mM S-methyl cysteine • 2) 25 mM homocysteine • 3) 25 mM o-methyl-L-serine • 4) 25 mM Norleucine • 5) 25 mM Norvaline
(§2) The Petri dishes are then incubated at 37 degrees centigrade for 24 hours and the appearance of a zone of inhibition around the well is recorded. The diameters of the zones of attenuated growth are measured as follows: […]

The subject of test [2] is strain PS2449 (mutated gene ileS ala11, plasmid pTLH33). The format is cell-based, E. coli. To be noted: 0.1 ml of 25 mM amino acid in central well, 37 degrees, 24 hours. Here is the method: as §1, §2
In another test the test system is strain β5520. The experiment in a line: Suppression of thymidine auxotrophy by S-carbamoyl-cysteine. Format: cell-based, E. coli. Conditions: absence of thymidine, aerobic. Here is the method: One-step selection scheme. For the one-step selections, cysteine oxidation under aerobiosis and subsequent cystine precipitation from the growth medium was avoided by use of the non-oxidizable precursor S-carbamoyl-cysteine (Scc). Scc is a poor precursor of cysteine and sustains growth of a Cys-auxotrophic E. coli strain less efficiently than cysteine. However, at concentrations above 1 mM, Scc gave rise to suppression of the thymidine auxotrophy of strain β5520, while in the absence of thymidine no growth was detectable below 1 mM Scc. When β5419 cells bearing the thyA:Val146GUA allele on a high copy plasmid were plated on mineral glucose plates supplemented with Scc (3 mM), no colonies grew after prolonged incubation at 30° C. (The experiment was designed to detect a mutant at a frequency of 10^−10.) To increase the mutation frequency, a mutS::spc+ (33) mutator allele was introduced in the genetic background of strain β5419 by P1 transduction, yielding strain β5432 (the mutS::spc+ disruption disables the mismatch repair system and leads to random transitions and frameshifts (34)). Colonies then appeared on the same medium with a frequency of about 10^−8. No colonies were found on plates lacking Scc.

A further test has as its system [^3H]Thr-tRNAval. The experiment in a line: Deacylation of mischarged Thr-tRNAVal by ValRS enzymes. To be noted: 2 nM enzyme, room temperature. Format: biochemical, E. coli. The method, then:
FIG. 5B: Histogram representation of the inhibition zone diameters of DvalS::kanR strains harboring each of the ValRS editing mutants on plasmid in response to exogenous Abu. Effects range from mild to severe. Histogram representation of the percentage of mischarged Thr-tRNAVal remaining after incubation with 2 nM enzyme for 15 minutes at room temperature. Both show a distinct range in the severity of editing defects caused by these point mutations. Taken together this illustrates a correlation between the ability of the mutant enzyme to deacylate mischarged amino acids from tRNAVal in vitro and the degree of in vivo toxicity.
(§3) Misacylation of Thr onto tRNAval was performed in the same conditions except 5.86 μM [^3H]Thr was substituted forVal in the reaction. To test deacylation rates for these enzymes it was necessary to generate [^3H]Thr-tRNAval. […] Enzyme was incubated with 2.5 μM tRNAval and 45 uM [^3H]Thr, incubated at 37 C. for 45 minutes, extracted twice in phenol:chloroform, and ethanol precipitated. Pellet was dissolved in 100 μL sterile H2O and scintillation counting was used to determine the success of the reaction. Deacylation reactions, done in triplicate for each enzyme, were performed in 155 mM Tris-HCl (pH 7.5), 100 μg/ml BSA, 10 mM MgCl2. At room temperature 2 nM enzyme was combined with [^3H]Thr-tRNAval, at 3, 6, 9, 16, and 30 minutes aliquots (9 μL) of the reaction mixture were precipitated with tricholoracetic acid, and the amount of misaminoacylated [^3H]Thr-tRNAval remaining in the sample was determined by scintillation counting. A no enzyme control reaction was included to provide reference point.

A further test relates to tRNA^Val. The experiment in a line: Misacylation of tRNAVal with Thr. The format is biochemical, E. coli. Conditions: pH 7.5, 37° C. The method, then: FIG. 2B: A graph showing misaminoacylation of tRNA^Val with Thr by the T222P mutant enzyme at pH 7.5 and 37° C. The wild-type (WT) and mutant alleles were cloned under the control of a PBAD promoter (30). The enzymes were partially purified from a laboratory strain lacking the chromosomal copy of the valS gene (ΔvalS::kan+). The purification and aminoacylation procedures were adapted from Hendrickson et al. (31). (Main panel) Misaminoacylation of tRNA^Val with Thr by the two enzymes. (Inset) Aminoacylation of tRNA^Val with Val by the two enzymes.
Aminoaclyation Assay, Misacylation, and Deacylation: Aminoacylation assays were performed at 37 C. in a 100 uL volume containing buffer (20 mM HEPES, 0.1 mM EDTA disodium salt, 0.15M NH4Cl, 10 ug/mL BSA pH 7.5), […] MgCl2, 0.7 μM [^3H]Val, 20 μM cold Val, 2 μM tRNAval (Sigma) and 20 nM ValRS enzyme (adapted from Hendrickson et al. 2000). Aliquots (10 μL) of the reaction mixture were precipitated with tricholoracetic acid, and the level of aminoacylation of the tRNA was determined by scintillation counting.
as §3

Where a chain is given by its changes, count along the chain named. Names and notes keep the numbering of the source.

On to `CCCC[C@H](N)C(=O)O` [Norleucin, Norleucine], for which the “diameters of the zones of attenuated growth” value (“diameters” for short) in test [1] was found to be 2.9 cm; in test [2] it was 3.4 cm.
In the case of `CCC[C@H](N)C(=O)O` [Norvaline], the “diameters” value was determined as 3.7 cm in test [1] and 8.0 cm in test [2].
The matching figures for `CSC[C@H](N)C(=O)O` [S-methyl-L-cysteine]: 1.3 cm and 3.0 cm.
Turning to `COC[C@H](N)C(=O)O` [O-methyl-L-serine], the figures for the “diameters” value in test [1] and in test [2] were 2.2 cm and 5.6 cm, respectively.
For `NC(=O)SC[C@H](N)C(=O)O` [Scc, S-carbamoyl-cysteine], in the test on strain β5520, the “concentration giving suppression of the thymidine auxotrophy” value was “above 1 mM”.
With `N[C@@H](CCS)C(=O)O` [Homocysteine], the “diameters” value in test [1] came to 2.1 cm; in test [2], 2.9 cm.

B1: K277Q: ValRS of E. coli with single substitution K277Q in the editing domain (protein, UniProt P07118 1-951, looked up, variant K277Q)
Valine--tRNA ligase: MEKTYNPQDIEQPLYEHWEKQGYFKPNGDESQESFCIMIPPPNVTGSLHMGHAFQQTIMDTMIRYQRMQGKNTLWQVGTDHAGIATQMVVERKIAAEEGKTRHDYGREAFIDKIWEWKAESGGTITRQMRRLGNSVDWERERFTMDEGLSNAVKEVFVRLYKEDLIYRGKRLVNWDPKLRTAISDLEVENRESKGSMWHIRYPLADGAKTADGKDYLVVATTRPETLLGDTGVAVNPEDPRYKDLIGKYVILPLVNRRIPIVGDEHADMEKGTGCVQITPAHDFNDYEVGKRHALPMINILTFDGDIRESAQVFDTKGNESDVYSSEIPAEFQKLERFAARKAVVAAVDALGLLEEIKPHDLTVPYGDRGGVVIEPMLTDQWYVRADVLAKPAVEAVENGDIQFVPKQYENMYFSWMRDIQDWCISRQLWWGHRIPAWYDEAGNVYVGRNEDEVRKENNLGADVVLRQDEDVLDTWFSSALWTFSTLGWPENTDALRQFHPTSVMVSGFDIIFFWIARMIMMTMHFIKDENGKPQVPFHTVYMTGLIRDDEGQKMSKSKGNVIDPLDMVDGISLPELLEKRTGNMMQPQLADKIRKRTEKQFPNGIEPHGTDALRFTLAALASTGRDINWDMKRLEGYRNFCNKLWNASRFVLMNTEGQDCGFNGGEMTLSLADRWILAEFNQTIKAYREALDSFRFDIAAGILYEFTWNQFCDWYLELTKPVMNGGTEAELRGTRHTLVTVLEGLLRLAHPIIPFITETIWQRVKVLCGITADTIMLQPFPQYDASQVDEAALADTEWLKQAIVAVRNIRAEMNIAPGKPLELLLRGCSADAERRVNENRGFLQTLARLESITVLPADDKGPVSVTKIIDGAELLIPMAGLINKEDELARLAKEVAKIEGEISRIENKLANEGFVARAPEAVIAKEREKLEGYAEAKAKLIEQQAVIAAL
Regarding B1, the “deacylation of Thr-tRNA^Val in vitro” value in test [^3H]Thr-tRNAval is on record as “most severe defects”. In addition, the “misacylation of tRNA^Val with Thr” value in the test with tRNA^Val is “high levels of mischarged Thr-tRNA^Val”.

B2: V276A: ValRS of E. coli with single substitution V276A in the editing domain (protein, UniProt P07118 1-951, looked up, variant V276A)
Valine--tRNA ligase: B1 Valine--tRNA ligase with V276A, Q277K
As for B2, in test [^3H]Thr-tRNAval, the “deacylation of Thr-tRNA^Val in vitro” value is on record as “closer to wild-type ValRS”. For the same molecule, in the test on tRNA^Val, the “misacylation of tRNA^Val with Thr” value is on record as “low levels of mischarging”.

B3: D230N: ValRS of E. coli with single substitution D230N in the editing domain (protein, UniProt P07118 1-951, looked up, variant D230N)
Valine--tRNA ligase: B1 Valine--tRNA ligase with D230N, Q277K
As for B3, the “deacylation of Thr-tRNA^Val in vitro” value in test [^3H]Thr-tRNAval is “slowed rate of deacylation”. For the same molecule, the “misacylation of tRNA^Val with Thr” value with tRNA^Val was “low levels of mischarging”.

B4: wild-type enzyme: wild-type valyl-tRNA synthetase (ValRS) of E. coli (protein, UniProt P07118 1-951, looked up)
Valine--tRNA ligase: B1 Valine--tRNA ligase with Q277K
For the molecule B4, in the test on tRNA^Val, the “misacylation of tRNA^Val with Thr” value was “no detectable mischarged tRNA^Val”.
